“Also recorded” adds a separate entry of the source. Read-outs that look alike come from different tables or passages of the source.
Assays:
HSPDE4A4-EGFP [1] = target: T1, HSPDE4A4-EGFP (Homo sapiens, UniProt P27815); experiment: Dispersal of preformed Rolipram-induced spots, HSPDE4A4-EGFP CHO cells; assay type: cell-based; conditions: for Removal of Rolipram-induced PDE4A4-spots: yes/no
T1 construct: expressed in transfected cells
Method: For the microscopic assessment of spot dispersal, stably transfected (non-clonal) cells transfected with the HSPDE4A4-EGFP probe are allowed to adhere to chambered coverglasses in HAM's F12 medium containing 10% FBS. […] Chambered coverglasses are then transferred to a Zeiss 135 inverted microscope for time lapse imaging as described in Example 2, above. At a given point after starting an experiment, a mixture of IBMX and forskolin is added to give final concentrations of 1 mM and 50 μM, respectively. Images are captured at regular intervals to form a time lapse sequence of the response, also as described in Example 2.
The plate is then run in the FLIPR system at 37° C., with addition of IBMX and forskolin to all wells at final concentrations of 500 μM and 50 μM respectively after the first minute. The experiment is continued for a further 45 minutes, readings being taken at intervals of 1 minute.
Non-clonal CHO cells stably transfected with the HSPDE4A4-EGFP probe are allowed to adhere to chambered coverglasses in HAM's F12 medium containing 10% FBS and to grow for 24 hours.
Clonal CHO cells stably transfected with the HSPDE4A4-EGFP probe are allowed to adhere to chambered coverglasses in HAM's F12 medium containing 10% FBS and to grow for 5 days without change of medium, which by this time is serum-depleted.
Individual wells are then treated with either 50 μM forskolin plus 500 μM IBMX or 200 nM PMA plus 2 μM ionomycin.

[2] = human, in vivo; cited from earlier work
[3] = target: T2, high affinity Rolipram binding site (HARBS); conditions: read-out: Displacement of [3H] Rolipram (i: μM); Data from Souness and Rao, 1997; cited from earlier work
T2 construct: Displacement of [3H]; Rolipram (i: μM); other: Data from Souness and Rao, 1997

[4] = tested on: high affinity Rolipram binding site (HARBS); conditions: Data from Souness and Rao, 1997; cited from earlier work
PDE4A probes = experiment: Redistribution of the PDE4A probes (summary); assay type: cell-based; conditions: for redistribution of the PDE4A probes: compound alone
HSPDE4A4-EGFP [5] = target: T1, HSPDE4A4-EGFP; experiment: Spot formation in CHO cells transfected with HSPDE4A4-EGFP; assay type: cell-based; conditions: for cells with spots: 10 μM denbufylline, 24.5 hours; for Formation of PDE4A4 spots: yes/no
Method: Chinese hamster ovary cells (CHO), are transfected with the plasmids described in Example 1 above using the transfection agent FuGENE™ 6 (Boehringer Mannheim Corp, USA) according to the method recommended by the suppliers. Stable transfectants are selected using 1 mg/ml G418 sulphate (Calbiochem) in the growth medium (HAM's F12 nutrient mix with Glutamax-1, 10% foetal bovine serum (FBS), 100 μg penicillin-streptomycin mixture ml^−1 (GibcoBRL, supplied by Life Technologies, Denmark). Cell are cultured at 37° C. in 100% humidity and conditions of normal atmospheric gases supplemented with 5% CO2.
For fluorescence microscopy, cells are allowed to adhere to Lab-Tek chambered coverglasses (Nalge Nunc International, Naperville USA) for at least 24 hours and are then cultured to about 80% confluence. Cells can also be grown in plastic 96-well plates (Polyfiltronics Packard 96-View Plate or Costar Black Plate, clear bottom; both types tissue culture treated) for imaging purposes. Prior to experiments, the cells are cultured over night without G418 sulphate in HAM F-12 medium with glutamax, 100 μg penicillin-streptomycin mixture ml^−1 and 10% FBS. This medium has low autofluorescence enabling fluorescence microscopy of cells straight from the incubator. For certain tests requiring medium of defined composition, particularly with regard to the presence of specific cell growth factors, the HAM's culture medium is replaced prior to imaging with a buffered saline solution (KRW buffer) containing (in mM) 3.6 KCl, 140 NaCl, 2 NaHCO3, 0.5 NaH2PO4, 0.5 MgSO4, 1.5 CaCl2, 10 Hepes, 5 glucose, pH7.4.
Changes in cellular distribution of a transfected probe can be imaged and quantified in an automated fashion. For this purpose cells are cultured to near 80% to 90% confluence in coverglass chambers or plastic 96-well plates, given the relevant treatment and allowed to respond. At the end of the response period, cells are fixed in 4% formaldehyde buffer (Lillies fixative buffer, pH7.0: Bie and Berntsen A/S, Denmark) for 30 minutes to 2 hours, then washed in phosphate buffered saline (PBS, Life Technologies, Denmark). Nuclear DNA is stained with 1 μM Hoechst 33258 (Molecular Probes, Eugene, Oreg., USA) in PBS for 10 minutes at 25° C., then washed twice in PBS. Automated images are collected on a Nikon Diaphot 300 (Nikon, Japan) using a Nikon Plan Fluor 20X/0.5NA objective lens. The basic microscope is fitted with a motorised specimen stage and motorised focus control (Prior Scientific, Fulbourn, Cambridge UK), excitation filter wheel (Sutter Instruments, Novato Calif. USA) and Photometrics PXL series camera with a KAF1400 CCD chip (Photometrics, Tucson, Ariz. USA), each of these items being under the control of an Macintosh 7200/90 computer (Apple Computer, Cupertino, Calif. USA). Automation of stage positioning, focus, excitation filter selection, and image acquisition is performed using macros written in-house, running under IPLab Spectrum for Macintosh (Scanalytics, Fairfax, Va. USA). Fluorescence illumination comes from a 100 W HBO lamp. Images are collected in pairs, the first using a 340/10 nm excitation filter, the second with a 475RDF40 excitation filter (Chroma, Brattleboro, Vt.). Both images are collected via the same dichroic and emission filters, which are optimised for EGFP applications (XF100 filter set, Omega Optical, Brattleboro, Vt.). While the choice of filters for imaging the nuclear stain (Hoechst 33258) is not well matched to that dye's spectral properties, resulting in lower image intensity, it greatly improves the throughput of the procedure by allowing both images to be collected using the same dichroic and emission filter. This eliminates any image registration problems and focus shifts which would result from using two different filter sets, which would require more steps in the acquisition procedure and more extensive image processing to overcome.

HSPDE4A1-EGFP [6] = target: T3, HSPDE4A1-EGFP (Homo sapiens, UniProt P27815); experiment: Competitive assay: reversal of Rolipram-induced spot dispersal, HSPDE4A1-EGFP CHO cells; assay type: cell-based; conditions: yes/no
T3 construct: the ca. 1.95 kb coding region of HSPDE4A1 (GenBank Acc.no. U97584) is amplified; expressed in transfected cells

PDE4 [7] = conditions: cited from earlier work; for Inhibition of PDE4 catalytic activity: yes/no
HSPDE4A1-EGFP [8] = target: T3, HSPDE4A1-EGFP; experiment: Spot dispersal in CHO cells transfected with HSPDE4A1-EGFP; assay type: cell-based; conditions: for Removal of PDE4A1 spots: yes/no
Method: (§1) […] The cells are then fixed with 4% formalin buffer (pH7) for 1 hour, washed with PBS and stained with 1 μM Hoechst 33258 in PBS for 10 minutes at 25° C., then washed twice in PBS. Automated images are collected and analysed for the number of spots per cell as described in Example 2.
as §1

[9] = tested on: cAMP-dependent protein kinases (PKA); conditions: cited from earlier work
PDE4 [10] = tested on: T4, PDE4; conditions: Saldou et al., 1998; read-out: IC50 against PDE4; cited from earlier work
T4 construct: other: Saldou et al., 1998; Such an enzyme preparation may be obtained from cells transfected with and expressing the PDE4 enzyme chosen

HSPDE4A4-EGFP [11] = target: T1, HSPDE4A4-EGFP; experiment: Competitive spot assay: inhibition of Rolipram- or RS25344-induced spot formation, HSPDE4A4-EGFP CHO cells; assay type: cell-based
Method: (§2) The cells are then fixed with 4% formaldehyde buffer (pH7) for 1 hour, washed with PBS and stained with 1 μM Hoechst 33258 in PBS for 10 minutes at 25° C., then washed twice in PBS. Automated images are collected and analysed for the number of spots per cell as described in Example 2.
as §2

[12] = Data from Souness and Rao, 1997, read-out: PDE4 inhibition (IC50: μM)

T1 sequence (P27815 whole entry): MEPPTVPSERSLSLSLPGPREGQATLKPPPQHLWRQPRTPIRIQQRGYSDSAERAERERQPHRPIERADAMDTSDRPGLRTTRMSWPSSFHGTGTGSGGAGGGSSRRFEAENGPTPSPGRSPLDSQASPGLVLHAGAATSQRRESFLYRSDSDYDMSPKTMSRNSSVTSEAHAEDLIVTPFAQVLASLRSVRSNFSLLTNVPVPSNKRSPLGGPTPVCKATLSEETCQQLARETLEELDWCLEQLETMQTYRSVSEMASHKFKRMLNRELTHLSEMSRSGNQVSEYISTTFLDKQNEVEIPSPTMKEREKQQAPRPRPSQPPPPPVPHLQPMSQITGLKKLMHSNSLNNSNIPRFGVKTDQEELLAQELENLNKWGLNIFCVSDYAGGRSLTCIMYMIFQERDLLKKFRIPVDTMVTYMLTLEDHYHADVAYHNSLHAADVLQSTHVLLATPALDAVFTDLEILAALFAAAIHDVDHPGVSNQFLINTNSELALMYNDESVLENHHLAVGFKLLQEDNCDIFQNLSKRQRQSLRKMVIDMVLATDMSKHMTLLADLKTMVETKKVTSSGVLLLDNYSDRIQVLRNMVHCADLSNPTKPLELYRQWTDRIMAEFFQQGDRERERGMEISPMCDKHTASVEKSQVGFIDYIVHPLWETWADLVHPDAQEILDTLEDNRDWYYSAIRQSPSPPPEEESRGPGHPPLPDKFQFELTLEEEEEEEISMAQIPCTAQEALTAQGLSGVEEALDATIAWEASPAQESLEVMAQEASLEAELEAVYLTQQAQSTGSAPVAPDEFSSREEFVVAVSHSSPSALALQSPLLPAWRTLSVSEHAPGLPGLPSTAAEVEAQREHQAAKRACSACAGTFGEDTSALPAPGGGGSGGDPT
T3 sequence (P27815 1-647 isoform P27815-4): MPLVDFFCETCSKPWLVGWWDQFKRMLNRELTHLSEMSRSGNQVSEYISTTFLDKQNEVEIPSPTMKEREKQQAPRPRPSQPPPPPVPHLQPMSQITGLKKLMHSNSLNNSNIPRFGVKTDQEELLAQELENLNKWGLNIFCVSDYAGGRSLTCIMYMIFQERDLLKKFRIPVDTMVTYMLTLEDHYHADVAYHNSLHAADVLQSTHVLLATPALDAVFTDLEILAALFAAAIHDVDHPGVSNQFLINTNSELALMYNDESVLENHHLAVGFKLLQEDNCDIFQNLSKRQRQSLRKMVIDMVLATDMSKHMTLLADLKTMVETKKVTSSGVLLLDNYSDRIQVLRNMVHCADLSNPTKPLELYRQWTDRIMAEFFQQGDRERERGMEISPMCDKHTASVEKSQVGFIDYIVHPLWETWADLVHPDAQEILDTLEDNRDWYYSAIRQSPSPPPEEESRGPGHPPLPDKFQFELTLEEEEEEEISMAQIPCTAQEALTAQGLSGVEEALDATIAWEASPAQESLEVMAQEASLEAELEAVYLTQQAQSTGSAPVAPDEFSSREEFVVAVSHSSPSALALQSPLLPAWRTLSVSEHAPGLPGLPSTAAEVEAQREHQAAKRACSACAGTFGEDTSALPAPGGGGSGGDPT

Compound	Removal of Rolipram-induced PDE4A4-spots (HSPDE4A4-EGFP [1])	Clinical effect [2]	Emesis [2]	Ki [3] [µM]	redistribution of the PDE4A probes (PDE4A probes)	Formation of PDE4A4 spots (HSPDE4A4-EGFP [5])	Reversal of Rolipram-induced removal of PDE4A1 spots (HSPDE4A1-EGFP [6])	IC50 (PDE4 [7]; [12]) [µM]	Inhibition of PDE4 catalytic activity (PDE4 [7])	Removal of PDE4A1 spots (HSPDE4A1-EGFP [8])	also measured
CCCCn1c(=O)c2c(ncn2CC(C)=O)n(CCCC)c1=O [Denbufylline]	no	anti-	yes	0.0041	indistinguishable from those induced by Rolipram treatment	yes	no	0.2	yes	yes	PDE4/HARBS, ratio (IC50 PDE4)/(Ki for HARBS) [4]: 49; cells with spots (HSPDE4A4-EGFP [5]): 40%; cells with spots (HSPDE4A4-EGFP [5]; listed as denbufylline): approximately 40%; IC50 (PDE4 [7]; literature values quoted in Example 5 (Saldou 1998; Ahluwalia 1982; Rubin 1991), read-out: IC50 against PDE4): 1 µM
O=S(=O)(NCCNC/C=C/c1ccc(Br)cc1)c1cccc2cnccc12 [H-89]											effect on the dispersal of spots induced by IBMX plus forskolin (HSPDE4A4-EGFP [1]; FLIPR, 2 micromolar H-89 pre-treatment 20 minutes): significant effect on the dispersal of spots; IC50 [9]: ~50 nM
COc1ccc(C(=O)Nc2c(Cl)cncc2Cl)cc1OC1CCCC1 [RP73401]	yes	anti-	no	0.0004	induces no redistribution	no	yes	0.0012	yes	no	time for dispersal of spots (HSPDE4A4-EGFP [1]; spots formed by 2 μM Rolipram over 16 hours, 1 μM RP73401): ≤ 10 min; prevention of the redistribution caused by Rolipram (PDE4A probes; in presence of Rolipram): prevent the redistribution; formation of spots, compound alone (in words) (HSPDE4A4-EGFP [5]; observed up to 24 hours): produces no spots; IC50 (PDE4 [10]): 0.3 nM; dispersal of PDE4A1 spots (in words) (HSPDE4A1-EGFP [8]; Rolipram 2 micromolar 2 hours, others over the ranges tested): does not disperse spots; also recorded: no significant spot dispersal; cells with spots (HSPDE4A4-EGFP [11]; 2 μM Rolipram plus 0.001 μM RP73401, 7.5 hours): less than 5%; spot formation (in words) (HSPDE4A4-EGFP [11]; 2 μM Rolipram plus 0.003 μM RP73401, 7.5 hours): unable to elicit the production of any spots; also recorded: no spots formed in any of the cells
